The values below come from the supplement of paper PMC5908809.

Molecules are shown by their SMILES.

Common to all, as to test: relative IC50 (inflection point of fitted viability curve, relative to fitted max inhibition); higher = less sensitive
What all share (conditions): 72 h

For one test, the system named is KHYG-1 (IL-2 2.5 ng/mL). How it is done: (§1)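 Drug sensitivity and resistance testing: 5 concentrations over a 10,000-fold range, 72 h at 37 °C, viability by CellTiter-Glo normalised to DMSO and benzethonium chloride controls. IC50 is the inflection point of a logistic fit (min fixed at 0, max fitted), so it is relative to the fitted maximal inhibition. Kept only where fitted max inhibition is at least 50%.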

For the next test, the system named is IMC-1 (IL-2 20 ng/mL). Here is the method:
as §1

The next test relates to SNK-6 (IL-2 2.5 ng/mL). How it is done:
as §1

The test system of the next test is DERL-7 (IL-2 2.5 ng/mL). How it is done:
as §1

The test system of another test is KAI3 (IL-2 2.5 ng/mL). How it is done: as §1
The test system of another test is NKL (IL-2 2.5 ng/mL). How it is done:
as §1

Another test has as its system NK-92 (IL-2 2.5 ng/mL). Here is the method: as §1
A further test relates to NK-YS (IL-2 2.5 ng/mL). How it is done: as §1

As for `Cn1cc(-c2ccc3nnc(Sc4ccc5ncccc5c4)n3n2)cn1` [SGX-523], the “relative IC50” value in the test with KHYG-1 (IL-2 2.5 ng/mL) and in the test with IMC-1 (IL-2 20 ng/mL) was above 5000 nM in each case. Take `C[C@@H]1CN(Cc2ccc(F)cc2)[C@@H](C)CN1C(=O)c1cc2c(C(=O)C(=O)N(C)C)cn(C)c2cc1Cl` [Talmapimod]: the “relative IC50” value with KHYG-1 (IL-2 2.5 ng/mL) and in the test on SNK-6 (IL-2 2.5 ng/mL) was above 10000 nM throughout. For `CON(C)C(=O)N1N=C(c2cc(F)ccc2F)S[C@@]1(CCCN)c1ccccc1` [Filanesib], in the test on IMC-1 (IL-2 20 ng/mL), the relative IC50 (commonly the concentration halfway between the upper and lower plateau of the fitted curve) was determined as 3.15 nM. As for `CNc1nc(-c2ccc3c(N)n[nH]c3c2)cc(N2C[C@@H](C(=O)NC3CCCCC3)CC[C@H]2C)n1`, the entries for the “relative IC50” value with DERL-7 (IL-2 2.5 ng/mL), in the test on IMC-1 (IL-2 20 ng/mL) and in the test on SNK-6 (IL-2 2.5 ng/mL) were 248 nM, above 10000 nM and above 10000 nM, respectively. For the molecule `CCCCCOC(=O)Nc1nc(=O)n([C@@H]2O[C@H](C)[C@@H](O)[C@H]2O)cc1F` [Capecitabine], the “relative IC50” value in the test with DERL-7 (IL-2 2.5 ng/mL) was 2520 nM; in the test with KHYG-1 (IL-2 2.5 ng/mL) it was above 10000 nM; with IMC-1 (IL-2 20 ng/mL), above 10000 nM; with KAI3 (IL-2 2.5 ng/mL) it was 1080 nM; in the test with SNK-6 (IL-2 2.5 ng/mL), 1630 nM. `O=c1ncn2nc(Sc3ccc(F)cc3F)ccc2c1-c1c(Cl)cccc1Cl` [VX 745]: the “relative IC50” value in the test with KAI3 (IL-2 2.5 ng/mL) was determined as 779 nM; with NKL (IL-2 2.5 ng/mL) it was 719 nM. As to `CCNC(=O)Nc1ccc(-c2nc3c(c(N4CCOC[C@@H]4C)n2)CCN(C2COC2)C3)cc1` [RG-7603], the “relative IC50” value in the test on DERL-7 (IL-2 2.5 ng/mL) is 156 nM; with IMC-1 (IL-2 20 ng/mL), above 2500 nM; in the test with NKL (IL-2 2.5 ng/mL) it was 185 nM. With `COc1ccc(COc2cc3oc(=O)c4cc(C(C)O)ccc4c3cc2OC)cc1` (stereo not given) [Palomid-529], the “relative IC50” value in the test with KHYG-1 (IL-2 2.5 ng/mL) turned out to be 1960 nM; in the test with NK-92 (IL-2 2.5 ng/mL), 1280 nM. Consider `CCc1c(C(=O)C(N)=O)c2c(OCC(=O)O)cccc2n1Cc1ccccc1` [Varespladib], for which the “relative IC50” value in the test on IMC-1 (IL-2 20 ng/mL) is above 10000 nM.

Turning to `O=C(CCBr)N1CCN(C(=O)CCBr)CC1` [Pipobroman], in the test with SNK-6 (IL-2 2.5 ng/mL), the “relative IC50” value was above 10000 nM.

Consider `N[C@@H]1CCCN(c2c(/C=C3\SC(=O)NC3=O)cccc2-c2ccccc2)C1` [AZD1208], for which the results for the “relative IC50” value in the test with DERL-7 (IL-2 2.5 ng/mL) and in the test on IMC-1 (IL-2 20 ng/mL) were 304 nM and above 10000 nM, respectively. Turning to `Cc1ccc(NC(=O)c2ccc(CN3CC[C@H](N(C)C)C3)c(C(F)(F)F)c2)cc1Nc1nccc(-c2cncnc2)n1` [Bafetinib], the “relative IC50” value in the test with NKL (IL-2 2.5 ng/mL) came to 136 nM. Regarding `CN1CCN(C2CCN(C(=O)Nc3cc(Oc4ccc(NC(=O)C5(C(=O)Nc6ccc(F)cc6)CC5)c(F)c4)ccn3)CC2)CC1` [Golvatinib], the “relative IC50” value in the test with KHYG-1 (IL-2 2.5 ng/mL) worked out at 715 nM. As for `C[C@]12CC[C@H](O)CC1=CC[C@@H]1[C@@H]2CC[C@]2(C)C(c3cccnc3)=CC[C@@H]12` [Abiraterone], in the test with SNK-6 (IL-2 2.5 ng/mL), the “relative IC50” value is above 5000 nM.

`COc1cc(C(=O)NC2CCN(C)CC2)c(F)cc1Nc1ncc2c(n1)N(C1CCCC1)CC(F)(F)C(=O)N2C` [TAK-960]: the “relative IC50” value in the test on DERL-7 (IL-2 2.5 ng/mL) was above 2500 nM. As to `O[C@H]1CC[C@H](Nc2ncc3nc(Nc4c(F)cc(F)cc4F)n([C@H]4CCOC4)c3n2)CC1` [Tanzisertib], the “relative IC50” value with SNK-6 (IL-2 2.5 ng/mL) is above 10000 nM.

As to `CNCc1ccc(-c2[nH]c3cc(F)cc4c3c2CCNC4=O)cc1` [Rucaparib], the figures for the “relative IC50” value with NK-YS (IL-2 2.5 ng/mL) and in the test with NKL (IL-2 2.5 ng/mL) were 2000 nM and 438 nM, respectively. For `COc1cc2ncnc(Oc3cccc(NC(=O)Nc4cc(C(C)(C)C(F)(F)F)on4)c3)c2cc1OC`, the “relative IC50” value with SNK-6 (IL-2 2.5 ng/mL) was above 10000 nM. As to `C[C@@H](Oc1cc(-c2cnn(C3CCNCC3)c2)cnc1N)c1c(Cl)ccc(F)c1Cl` [Crizotinib], the “relative IC50” value with SNK-6 (IL-2 2.5 ng/mL) is above 1000 nM. Turning to `CNC(=O)c1ccc(C)c(-n2c(C)cc(OCc3ccc(F)cc3F)c(Br)c2=O)c1`, the “relative IC50” value in the test on SNK-6 (IL-2 2.5 ng/mL) was above 1000 nM. The same measure, in the same setting: under `CC(C)C[C@H](NC(=O)[C@@H](COC(C)(C)C)NC(=O)[C@H](Cc1ccc(O)cc1)NC(=O)[C@H](CO)NC(=O)[C@H](Cc1c[nH]c2ccccc12)NC(=O)[C@H](Cc1cnc[nH]1)NC(=O)[C@@H]1CCC(=O)N1)C(=O)N[C@@H](CCCNC(=N)N)C(=O)N1CCC[C@H]1C(=O)NNC(N)=O` [Goserelin] stands above 10000 nM.

In the case of `Cc1nc(Nc2ncc(C(=O)Nc3c(C)cccc3Cl)s2)cc(N2CCN(CCO)CC2)n1` [Dasatinib], the “relative IC50” value in the test on NKL (IL-2 2.5 ng/mL) came to 49.8 nM. Consider `Nc1cc(F)ccc1NC(=O)/C=C/c1cnn(C/C=C/c2ccccc2)c1` [RGFP966], for which the “relative IC50” value with DERL-7 (IL-2 2.5 ng/mL) was 1530 nM; in the test with KAI3 (IL-2 2.5 ng/mL), 1940 nM; with SNK-6 (IL-2 2.5 ng/mL) it was 1460 nM; with NK-92 (IL-2 2.5 ng/mL), 1680 nM; with NKL (IL-2 2.5 ng/mL), 1350 nM. Regarding `CCc1cc(Nc2nccc(-c3c(-c4ccc(OC)c(C(=O)Nc5c(F)cccc5F)c4)nc4ccccn34)n2)c(OC)cc1N1CCC(N2CCN(S(C)(=O)=O)CC2)CC1`, the “relative IC50” value with KHYG-1 (IL-2 2.5 ng/mL), with IMC-1 (IL-2 20 ng/mL), in the test with SNK-6 (IL-2 2.5 ng/mL) and with NKL (IL-2 2.5 ng/mL) was above 10000 nM throughout.
